Some test systems named below: SR; NCI-H522; SK-MEL-2; OVCAR-5; UACC-62; ACHN; SN12C; U-251; NCI-H226; CAKI-1; RPMI-8226; HT-29; MOLT-4; 786-0; OVCAR-8; SNB-75.
What all share (test): inhibition of tumour cell growth, NCI panel, 48 h

We go through 14 molecules from ChEMBL document CHEMBL1201862, “PubChem BioAssay data set” (2004).

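All cell lines were grown in 96-well plates and treated with compound for 48 hours. GI50 = concentration required for 50% inhibition of growth.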 The source made the active and inactive calls. No stated cut-off is given here; in the data, active = GI50 up to about 1.1 µM and inactive = higher.

With `CCOC(=O)C(=O)Nc1ccc([N+](=O)[O-])cc1C#N`, the GI50 with SR, in the experiment on NCI-H522, in the experiment on SK-MEL-2, in the experiment with OVCAR-5, in the experiment with UACC-62 and in the experiment with ACHN was > 100 µM (inactive) throughout. Further, the GI50 in the experiment with SN12C, with U-251, in the experiment with NCI-H226, with CAKI-1, in the experiment on RPMI-8226 and in the experiment with HT-29 was > 100 µM (inactive) throughout. For the same molecule, the GI50 in the experiment on MOLT-4, in the experiment with 786-0 and with OVCAR-8 was > 100 µM (inactive) throughout.
With `Cc1ccc(/C=C(\NC(=O)c2ccccc2)c2nc3ccccc3[nH]2)cc1`, the GI50 was 37.4 µM (inactive) in the experiment on SR; 42.2 µM (inactive) in the experiment on NCI-H522; 31.6 µM (inactive) in the experiment on SK-MEL-2; > 100 µM (inactive) in the experiment on OVCAR-5; 83.6 µM (inactive) in the experiment on UACC-62; 47.5 µM (inactive) in the experiment with ACHN. Further, the GI50 was 61 µM (inactive) in the experiment on SN12C; 41.2 µM (inactive) in the experiment with U-251; 37.5 µM (inactive) with HT-29; 39.3 µM (inactive) in the experiment on 786-0; 43.8 µM (inactive) in the experiment with OVCAR-8.
For the molecule `CCO[C@]12C[C@H](OC)[C@@]3(O)CC(C1[C@H]3OCc1ccccc1)C13C4C2[C@H](OC)C1[C@](COC)(CN4CC)[C@H](O)C[C@@H]3OC` (stereo partly drawn), the GI50 with SR was 78.5 µM (inactive); with OVCAR-5, > 100 µM (inactive); with UACC-62, > 100 µM (inactive); in the experiment on ACHN, > 100 µM (inactive); with SN12C, > 100 µM (inactive); in the experiment on U-251, > 100 µM (inactive). The GI50 in the experiment with NCI-H226 was > 100 µM (inactive); in the experiment on RPMI-8226 it was > 100 µM (inactive); in the experiment with HT-29, > 100 µM (inactive); in the experiment with SNB-75 it was > 100 µM (inactive); with MOLT-4, 95.9 µM (inactive); in the experiment on 786-0, 7.38 µM (inactive). The GI50 with OVCAR-8 is > 100 µM (inactive).
Regarding `c1ccc2c(c1)nnn2CNc1ccc(N2CCCCC2)cc1`, the GI50 was 62.7 µM (inactive) with SR; > 100 µM (inactive) in the experiment with NCI-H522; > 100 µM (inactive) in the experiment with SK-MEL-2; > 100 µM (inactive) in the experiment with UACC-62; > 100 µM (inactive) in the experiment with ACHN; > 100 µM (inactive) with SN12C. Besides, the GI50 with U-251 is > 100 µM (inactive); with NCI-H226 it was > 100 µM (inactive); in the experiment on RPMI-8226, 68.2 µM (inactive); in the experiment with HT-29, > 100 µM (inactive); in the experiment on SNB-75, > 100 µM (inactive); with MOLT-4 it was > 100 µM (inactive). For the same molecule, the GI50 in the experiment with 786-0 and in the experiment with OVCAR-8 was > 100 µM (inactive) in each case.
With `COC(=O)C1CC(C(=O)OC)c2nc3cc(C)ccc3nc21` (stereo not drawn), the GI50 with NCI-H522, in the experiment with SK-MEL-2, in the experiment with OVCAR-5, in the experiment with UACC-62, in the experiment with ACHN and with SN12C was > 100 µM (inactive) throughout. Besides, the GI50 in the experiment on U-251 was > 100 µM (inactive); in the experiment with NCI-H226, > 100 µM (inactive); in the experiment on CAKI-1, > 100 µM (inactive); with RPMI-8226, > 100 µM (inactive); with HT-29, 62.7 µM (inactive); in the experiment with SNB-75, > 100 µM (inactive). The GI50 in the experiment on MOLT-4, in the experiment with 786-0 and in the experiment on OVCAR-8 was > 100 µM (inactive) in each case.
In the case of `CN1CC[C@]2(C)c3cc(O)ccc3CC3CCCC1C32C` (stereo partly drawn), the GI50 in the experiment with SR, in the experiment on NCI-H522, with OVCAR-5, in the experiment on UACC-62, with ACHN and with SN12C was > 100 µM (inactive) each time. The GI50 is > 100 µM (inactive) in the experiment with U-251; > 100 µM (inactive) with NCI-H226; > 100 µM (inactive) in the experiment on CAKI-1; > 100 µM (inactive) in the experiment on RPMI-8226; > 100 µM (inactive) in the experiment with HT-29; 92 µM (inactive) in the experiment with SNB-75. For the same molecule, the GI50 in the experiment on MOLT-4, in the experiment on 786-0 and with OVCAR-8 was > 100 µM (inactive) throughout.
Consider `COC(=O)c1cc2c3c(ccc2[nH]1)N(C(=O)c1cc2c4c(ccc2[nH]1)N(C(=O)c1cc2c5c(ccc2[nH]1)N(C(N)=O)CC5)CC4)CC3`, for which the GI50 is 5.58 µM (inactive) in the experiment on SR; 1.61 µM (inactive) in the experiment with NCI-H522; 3.18 µM (inactive) with SK-MEL-2; > 52.7 µM (inactive) in the experiment on OVCAR-5; 0.845 µM (active) in the experiment with UACC-62; 3.13 µM (inactive) in the experiment with ACHN. In addition, the GI50 with SN12C is 2.97 µM (inactive); in the experiment on U-251, 2.17 µM (inactive); with NCI-H226, 1.71 µM (inactive); in the experiment on CAKI-1, 2 µM (inactive); in the experiment with RPMI-8226 it was 7.89 µM (inactive); in the experiment on HT-29, 6.58 µM (inactive). Moreover, the GI50 is 2.11 µM (inactive) in the experiment with SNB-75, > 23 µM (inactive) in the experiment on MOLT-4 and 3.05 µM (inactive) with 786-0.
In the case of `COC(=O)C1=Cc2cc(OC)c(OC)cc2[C@H](c2ccc(OC)c(OC)c2)C1C(=O)OC` (stereo partly drawn), the GI50 in the experiment on SR is > 100 µM (inactive); with OVCAR-5, > 100 µM (inactive); in the experiment with UACC-62, 98.9 µM (inactive); with ACHN, > 100 µM (inactive); in the experiment on SN12C, > 100 µM (inactive); in the experiment with U-251, > 100 µM (inactive). Further, the GI50 in the experiment on NCI-H226 is > 100 µM (inactive); in the experiment with CAKI-1 it was > 100 µM (inactive); in the experiment with RPMI-8226, > 100 µM (inactive); in the experiment on HT-29, 75.9 µM (inactive); in the experiment with SNB-75, > 100 µM (inactive); in the experiment with MOLT-4 it was > 100 µM (inactive). The GI50 in the experiment on 786-0 and in the experiment on OVCAR-8 was > 100 µM (inactive) throughout.
As for `CC(=O)OCC1OC(n2c(=O)[nH]c(=O)c3nn[nH]c32)C(OC(C)=O)C(OC(C)=O)C1OC(C)=O` (stereo not drawn), the GI50 in the experiment with SR, in the experiment on NCI-H522, with SK-MEL-2, in the experiment with OVCAR-5, in the experiment on UACC-62 and with ACHN was > 100 µM (inactive) in each case. Moreover, the GI50 was > 100 µM (inactive) with SN12C; > 100 µM (inactive) in the experiment with U-251; > 100 µM (inactive) with CAKI-1; > 100 µM (inactive) in the experiment with RPMI-8226; > 100 µM (inactive) with HT-29; 2.63 µM (inactive) in the experiment with SNB-75. Moreover, the GI50 in the experiment with MOLT-4, with 786-0 and in the experiment on OVCAR-8 was > 100 µM (inactive) in each case.
Turning to `O=C1C2c3[nH]c4ccccc4c3[C@@H]3CCCCC3C2C(=O)N1c1ccccc1` (stereo partly drawn), the GI50 in the experiment on SR was 19.8 µM (inactive); with OVCAR-5, 16.8 µM (inactive); in the experiment with UACC-62, 16.6 µM (inactive); in the experiment on ACHN, 25.4 µM (inactive); in the experiment on SN12C, 17.8 µM (inactive); in the experiment with U-251 it was 14.4 µM (inactive). The GI50 was 21 µM (inactive) with NCI-H226; 17.5 µM (inactive) in the experiment on RPMI-8226; 19.7 µM (inactive) in the experiment with HT-29; 27.2 µM (inactive) with SNB-75; 19 µM (inactive) in the experiment with MOLT-4; 18.9 µM (inactive) in the experiment on 786-0. Also, the GI50 in the experiment on OVCAR-8 is 26.4 µM (inactive).
On to `COc1cc2c(cc1OC)C(=O)N1CCCC1C(=O)S2` (stereo not drawn), for which the GI50 was > 100 µM (inactive) in the experiment with SR; > 100 µM (inactive) in the experiment with NCI-H522; > 100 µM (inactive) in the experiment on SK-MEL-2; > 100 µM (inactive) in the experiment with OVCAR-5; 35.6 µM (inactive) in the experiment on UACC-62; > 100 µM (inactive) in the experiment on ACHN. Besides, the GI50 in the experiment with SN12C, with U-251, with RPMI-8226, in the experiment with MOLT-4, in the experiment with 786-0 and in the experiment on OVCAR-8 was > 100 µM (inactive) each time.
With `O=C(O)C12C3CCC(C3)C1(C(=O)O)C1CCC2C1` (stereo not drawn), the GI50 with SR was 60.3 µM (inactive); in the experiment on NCI-H522, 14.7 µM (inactive); with SK-MEL-2 it was > 100 µM (inactive); in the experiment with OVCAR-5, > 100 µM (inactive); in the experiment on UACC-62, > 100 µM (inactive); in the experiment with ACHN, > 100 µM (inactive). The GI50 in the experiment on SN12C is > 100 µM (inactive); with NCI-H226, > 100 µM (inactive); in the experiment on CAKI-1 it was > 100 µM (inactive); in the experiment with RPMI-8226, 23.3 µM (inactive); in the experiment on HT-29 it was > 100 µM (inactive); with SNB-75, > 100 µM (inactive). In addition, the GI50 in the experiment on MOLT-4, in the experiment on 786-0 and with OVCAR-8 was > 100 µM (inactive) in each case.
Consider `NCCCC(N/C=C1/N=C(c2ccccc2)OC1=O)C(=O)O` (stereo not drawn), for which the GI50 with SR is 87.3 µM (inactive); in the experiment with NCI-H522, 40.8 µM (inactive); in the experiment with SK-MEL-2, > 100 µM (inactive); in the experiment with OVCAR-5, > 100 µM (inactive); with UACC-62, > 100 µM (inactive); in the experiment with ACHN, > 100 µM (inactive). For the same molecule, the GI50 is > 100 µM (inactive) in the experiment on SN12C; > 100 µM (inactive) in the experiment on U-251; > 100 µM (inactive) with NCI-H226; 45.5 µM (inactive) in the experiment on RPMI-8226; > 100 µM (inactive) in the experiment on HT-29; > 100 µM (inactive) in the experiment with SNB-75. The GI50 with MOLT-4, in the experiment on 786-0 and in the experiment with OVCAR-8 was > 100 µM (inactive) throughout.
Consider `CNC(=O)NCNC(=O)NC`, for which the GI50 in the experiment on SK-MEL-2, in the experiment with OVCAR-5, in the experiment on UACC-62, in the experiment on U-251, in the experiment with CAKI-1 and with RPMI-8226 was > 100 µM (inactive) each time. The GI50 in the experiment on HT-29, with SNB-75, with MOLT-4, in the experiment on 786-0 and in the experiment with OVCAR-8 was > 100 µM (inactive) throughout.
